In the supplement of paper PMC11208160:

Assay: recombinant UMI read abundance after kanamycin selection (control-corrected) (log10(CPM+1)); higher = more efficient recombination; extreme values may be limits of the assay; sequences stand for … in AGTGCAGAGAAAATCGGCCAGTTTTCTCTGCCTGCAGTCCGCATGCCGTGGGACCCCTTGGGTTCTAACCTGTTGCCTAGATTTATGCAGCGGACTGCCTTTCTCCCAAAGTGATAAACCGG…AGGTTGGTTTCACT; site = the 11-nt donor
Procedure, shortened: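 Counts of recombinant UMIs were reported as log10(CPM+1). Before that, they were converted to CPM, averaged over replicates and scaled using control-derived factors. They came from PCR across the donor–target junction after Escherichia coli carrying the pair library and target plasmid was plated on IPTG (0.07 mM) plus kanamycin, or unselected, in two replicates each.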
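Also: IS621 bridge recombinase in Escherichia coli cells against a fixed T5 target plasmid.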

First: TAGTTTCCATGGACCGGTTTTCCCGGTAATCCGTATTTGAA (site TAGTTTCCTTT)
Second: TAGTTTGCATGGACCGGTTTTCCCGGTAATCCGTATTTGCC (site TAGTTTGCTGG)
The “recombinant UMI read abundance (log10)” value of the first is higher: 0.228 for the first, 0 for the second.

Going from “TATACCCCATGGACCGGTTTTCCCGGTAATCCGTATTTGAC (site TATACCCCTGT)” to “TATACTACATGGACCGGTTTTCCCGGTAATCCGTATTTGTG (site TATACTACTCA)”, the “recombinant UMI read abundance (log10)” value falls from 1.5 to 0.195.

Going from “TATATCGCATGGACCGGTTTTCCCGGTAATCCGTATTTGAT (site TATATCGCTAT)” to “TATATGGCATGGACCGGTTTTCCCGGTAATCCGTATTTGGT (site TATATGGCTAC)”, the “recombinant UMI read abundance (log10)” value falls from 0.63 to 0.39.

Going from “TATATGGCATGGACCGGTTTTCCCGGTAATCCGTATTTGTT (site TATATGGCTAA)” to “TATCAGGCATGGACCGGTTTTCCCGGTAATCCGTATTTGTG (site TATCAGGCTCA)”, the “recombinant UMI read abundance (log10)” value falls from 0.36 to 0.113.

Compared with “TATCATCCATGGACCGGTTTTCCCGGTAATCCGTATTTGGT (site TATCATCCTAC)”, “TATCCCGCATGGACCGGTTTTCCCGGTAATCCGTATTTGTT (site TATCCCGCTAA)” is higher in “recombinant UMI read abundance (log10)” value: 0.0117 for the first, 0.479 for the second.

First: TATCTTACATGGACCGGTTTTCCCGGTAATCCGTATTTGTA (site TATCTTACTTA)
Second: TATGAATCATGGACCGGTTTTCCCGGTAATCCGTATTTGCC (site TATGAATCTGG)
The “recombinant UMI read abundance (log10)” value of the first is lower: 0.0229 for the first, 1.12 for the second.

Compared with “TATGAATCATGGACCGGTTTTCCCGGTAATCCGTATTTGCG (site TAAGAATCTCG)”, “TATGAATCATGGACCGGTTTTCCCGGTAATCCGTATTTGCG (site TACGAATCTCG)” is higher in “recombinant UMI read abundance (log10)” value: 1.85 for the first, 2.23 for the second.

Going from “TATGAATCATGGACCGGTTTTCCCGGTAATCCGTATTTGCG (site TAGGAATCTCG)” to “TATGAATCATGGACCGGTTTTCCCGGTAATCCGTATTTGCG (site TATGAATCTCG)”, the “recombinant UMI read abundance (log10)” value rises from 0.768 to 2.18.

“TATGACCCATGGACCGGTTTTCCCGGTAATCCGTATTTGAG (site TATGACCCTCT)” and “TATGAGCCATGGACCGGTTTTCCCGGTAATCCGTATTTGGA (site TATGAGCCTTC)” are within 0.2 log units of each other in “recombinant UMI read abundance (log10)” value: 0.00635 for the first, 0.00722 for the second.

Compared with “TATGCGGCATGGACCGGTTTTCCCGGTAATCCGTATTTGCT (site TATGCGGCTAG)”, “TATGCGGCATGGACCGGTTTTCCCGGTAATCCGTATTTGCT (site TCTGCGGCTAG)” is lower in “recombinant UMI read abundance (log10)” value: 0.532 for the first, 0.00356 for the second.

“TATGCGGCATGGACCGGTTTTCCCGGTAATCCGTATTTGCT (site TGTGCGGCTAG)” and “TATGCGGCATGGACCGGTTTTCCCGGTAATCCGTATTTGCT (site TTTGCGGCTAG)” are within 0.2 log units of each other in “recombinant UMI read abundance (log10)” value: 0.029 for the first, 0.00802 for the second.

“TATGTAACATGGACCGGTTTTCCCGGTAATCCGTATTTGAC (site GTACCGTCTAA)” and “TATGTCCCATGGACCGGTTTTCCCGGTAATCCGTATTTGGA (site TATGTCCCTTC)” are within 0.2 log units of each other in “recombinant UMI read abundance (log10)” value: 0.0137 for the first, 0.00458 for the second.

“TATTCCCCATGGACCGGTTTTCCCGGTAATCCGTATTTGTA (site TATTCCCCTTA)” and “TATTCCCCATGGACCGGTTTTCCCGGTAATCCGTATTTGTA (site TCTTCCCCTTA)” are within 0.2 log units of each other in “recombinant UMI read abundance (log10)” value: 0.0102 for the first, 0.207 for the second.

First: TATTCCCCATGGACCGGTTTTCCCGGTAATCCGTATTTGTA (site TGTTCCCCTTA)
Second: TATTCCCCATGGACCGGTTTTCCCGGTAATCCGTATTTGTA (site TTTTCCCCTTA)
The “recombinant UMI read abundance (log10)” value of the first is higher: 0.254 for the first, 0.0134 for the second.

“TATTCGGCATGGACCGGTTTTCCCGGTAATCCGTATTTGTG (site TATTAGGCTCA)” and “TATTCGGCATGGACCGGTTTTCCCGGTAATCCGTATTTGTG (site TATTCGGCTCA)” are within 0.2 log units of each other in “recombinant UMI read abundance (log10)” value: 0.0202 for the first, 0.131 for the second.

“TATTCGGCATGGACCGGTTTTCCCGGTAATCCGTATTTGTG (site TATTGGGCTCA)” and “TATTCGGCATGGACCGGTTTTCCCGGTAATCCGTATTTGTG (site TATTTGGCTCA)” are within 0.2 log units of each other in “recombinant UMI read abundance (log10)” value: 0.00845 for the first, 0.0132 for the second.

“TATTGCACATGGACCGGTTTTCCCGGTAATCCGTATTTGGT (site TATTGCACTAC)” and “TATTTGGCATGGACCGGTTTTCCCGGTAATCCGTATTTGCG (site TATTTGGCTCA)” are within 0.2 log units of each other in “recombinant UMI read abundance (log10)” value: 0.029 for the first, 0.0189 for the second.

“TATTTGGCATGGACCGGTTTTCCCGGTAATCCGTATTTGCG (site TATTTGGCTCC)” and “TATTTGGCATGGACCGGTTTTCCCGGTAATCCGTATTTGCG (site TATTTGGCTCG)” are within 0.2 log units of each other in “recombinant UMI read abundance (log10)” value: 0.0115 for the first, 0.0194 for the second.

“TATTTGGCATGGACCGGTTTTCCCGGTAATCCGTATTTGCG (site TATTTGGCTCT)” and “TATTTGGCATGGACCGGTTTTCCCGGTAATCCGTATTTGTC (site TATTTGGCTAA)” are within 0.2 log units of each other in “recombinant UMI read abundance (log10)” value: 0.0118 for the first, 0.0189 for the second.

“TATTTGGCATGGACCGGTTTTCCCGGTAATCCGTATTTGTC (site TATTTGGCTCA)” and “TATTTGGCATGGACCGGTTTTCCCGGTAATCCGTATTTGTC (site TATTTGGCTGA)” are within 0.2 log units of each other in “recombinant UMI read abundance (log10)” value: 0.00726 for the first, 0 for the second.

“TATTTGGCATGGACCGGTTTTCCCGGTAATCCGTATTTGTC (site TATTTGGCTTA)” and “TATTTGGCATGGACCGGTTTTCCCGGTAATCCGTATTTGTG (site AATTTGGCTCA)” are within 0.2 log units of each other in “recombinant UMI read abundance (log10)” value: 0.00596 for the first, 0.0279 for the second.

“TATTTGGCATGGACCGGTTTTCCCGGTAATCCGTATTTGTG (site CATTTGGCTCA)” and “TATTTGGCATGGACCGGTTTTCCCGGTAATCCGTATTTGTG (site GATTTGGCTCA)” are within 0.2 log units of each other in “recombinant UMI read abundance (log10)” value: 0.0142 for the first, 0.026 for the second.

“TATTTGGCATGGACCGGTTTTCCCGGTAATCCGTATTTGTG (site TAATTGGCTCA)” and “TATTTGGCATGGACCGGTTTTCCCGGTAATCCGTATTTGTG (site TACTTGGCTCA)” are within 0.2 log units of each other in “recombinant UMI read abundance (log10)” value: 0.0238 for the first, 0.00946 for the second.

“TATTTGGCATGGACCGGTTTTCCCGGTAATCCGTATTTGTG (site TAGTTGGCTCA)” and “TATTTGGCATGGACCGGTTTTCCCGGTAATCCGTATTTGTG (site TATATGGCTCA)” are within 0.2 log units of each other in “recombinant UMI read abundance (log10)” value: 0.00343 for the first, 0.00476 for the second.

“TATTTGGCATGGACCGGTTTTCCCGGTAATCCGTATTTGTG (site TATCTGGCTCA)” and “TATTTGGCATGGACCGGTTTTCCCGGTAATCCGTATTTGTG (site TATGTGGCTCA)” are within 0.2 log units of each other in “recombinant UMI read abundance (log10)” value: 0.00736 for the first, 0.0139 for the second.

“TATTTGGCATGGACCGGTTTTCCCGGTAATCCGTATTTGTG (site TATTAGGCTCA)” and “TATTTGGCATGGACCGGTTTTCCCGGTAATCCGTATTTGTG (site TATTCGGCTCA)” are within 0.2 log units of each other in “recombinant UMI read abundance (log10)” value: 0.00968 for the first, 0.0142 for the second.

“TATTTGGCATGGACCGGTTTTCCCGGTAATCCGTATTTGTG (site TATTGGGCTCA)” and “TATTTGGCATGGACCGGTTTTCCCGGTAATCCGTATTTGTG (site TATTTAGCTCA)” are within 0.2 log units of each other in “recombinant UMI read abundance (log10)” value: 0.00686 for the first, 0.0189 for the second.

“TATTTGGCATGGACCGGTTTTCCCGGTAATCCGTATTTGTG (site TATTTCGCTCA)” and “TATTTGGCATGGACCGGTTTTCCCGGTAATCCGTATTTGTG (site TATTTGACTCA)” are within 0.2 log units of each other in “recombinant UMI read abundance (log10)” value: 0.00607 for the first, 0.0103 for the second.

In the case of “TATTTGGCATGGACCGGTTTTCCCGGTAATCCGTATTTGTG (site TATTTGCCTCA)”, the “recombinant UMI read abundance (log10)” value is reported as 0.00864.
